The values below are quoted from earlier work in patent US10466244B2, “Methods and materials for identifying therapeutic response in chronic myeloid leukemia” (RAJIV GANDHI CENTRE FOR BIOTECHNOLOGY, priority 2013, dated 2019).

Molecules are shown by their SMILES.

The test system of the series is BCR-ABL. As to conditions: relative to imatinib.

With `Cc1cn(-c2cc(NC(=O)c3ccc(C)c(Nc4nccc(-c5cccnc5)n4)c3)cc(C(F)(F)F)c2)cn1` [Nilotinib, nilotinib], the “increased potency compared with imatinib against BCR-ABL” value is listed as 20- to 30 fold.
